Laboratory results from PMC7335187, “Super-assembly of ER-phagy receptor Atg40 induces local ER remodeling at contacts with forming autophagosomal membranes” (Nature Communications, 2020).
Like-named read-outs stand apart in the source and are kept apart here. Where a SMILES comes first, the peptide text is derived from it.

Tests used:
LC3A WT = LC3A WT (Homo sapiens, UniProt Q9H492); test: ITC of peptides with LC3A; format: binding; conditions: 25 °C, 0.5 mM peptide in syringe, LC3A WT in cell 10 times lower, single-site model, ± fitting error
Experimental: (§1) Some of peptides (Supplementary Table 4) and all proteins except Atg40-6His were expressed in E. coli BL21 (DE3). Bacteria were cultured at 37 °C until OD600 became 0.8–1.0 and further cultured at 16 °C with 100 μM IPTG overnight. After centrifugation, the pellets were resuspended with 20 ml PBS with 0.5 mM EDTA and lysed by sonication for 10 min. After centrifugation, the supernatants were incubated with GST-accept resin (Nacalai tesque). After three times wash by PBS, the proteins were eluted with glutathione buffer (10 mM glutathione and 50 mM Tris pH 8.0). The buffer of the eluates was exchanged with PBS by a Bio-Scale Mini BioGel P-6 desalting column (Bio-Rad). After incubation with GST-fused HRV 3 C protease at 4 °C overnight, the samples were subjected to a GST-accept resin column to remove excised GST and the protease. RTN3^245–264-GABARAP was purified by cation-exchange chromatography using CM Sepharose FF column (GE Healthcare) with 500 mM MES pH 6.0 as buffer B and 50 mM MES pH 6.0 and 1 M NaCl as buffer C. The samples were further subjected to size-exclusion chromatography with 20 mM HEPES pH 6.8, 150 mM sodium chloride except for mCherry-Atg8-CC^tetramer (20 mM HEPES pH 6.8, 500 mM sodium chloride) using a Superdex 75 10/300 or Superdex 200 26/60 column. As described in Supplementary Table 4, the Atg40^237–252 M245A and Atg40^237–252 D243A D247A peptides were synthesized by Cosmo Bio, and the FAM134B^453–460 and SEC62^361–368 peptides were synthesized by BEX Co., Ltd. The Atg40^234–252 peptide and its variants were prepared using Liberty Blue peptide synthesizer (CEM Corporation). After dissolving these synthesized peptides in 300 μl water with ~10 μl ammonium hydroxide, they were subjected to size-exclusion chromatography with 20 mM HEPES pH 6.8 containing 150 mM sodium chloride using a Superdex 75 10/300 column.
Peptides used in ITC are listed in Supplementary Table 4. ITC experiments were performed using Microcal iTC200 calorimeter (Malvern Panalytical), with stirring at 1000 rpm at 25 °C. […]

LC3C WT = LC3C WT (Homo sapiens, UniProt Q9BXW4); test: ITC of peptides with LC3C; format: binding; conditions: 25 °C, 0.5 mM peptide in syringe, LC3C WT in cell 10 times lower, single-site model, ± fitting error
Experimental: as §1
Peptides used in ITC are listed in Supplementary Table 4. ITC experiments were performed using Microcal iTC200 calorimeter (Malvern Panalytical), with stirring at 1000 rpm at 25 °C. Atg40, FAM134B, SEC62, and RTN3 peptides were prepared as injection samples from the syringe. Concentrations of FAM134B, SEC62, and RTN3 peptides were 0.5 mM, whereas those of Atg40^234–252 and Atg40^237–252 peptides were 2.0 and 1.8 mM, respectively. In total, 200 μl Atg8, LC3A, LC3B, LC3C, GABARAP, GABARAPL1, and GABARAPL2 with 10 times lower concentration than the syringe samples were filled in the cell. As an exception, 1.8 mM Atg8 was filled in the cell when 1.8 mM Atg40^237–252 D243A D247A was in a syringe. The titration involved 18 injections of 2 μl of the syringe sample at intervals of 120 s into a cell after one injection of 0.4 μl of syringe sample. […]

Sequence of LC3C WT (Q9BXW4 whole entry): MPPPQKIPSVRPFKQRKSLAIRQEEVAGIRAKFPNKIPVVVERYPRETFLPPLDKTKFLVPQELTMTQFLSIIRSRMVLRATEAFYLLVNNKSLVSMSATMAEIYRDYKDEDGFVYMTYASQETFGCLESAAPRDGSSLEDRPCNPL

## CC[C@H](C)[C@H](NC(=O)[C@@H](NC(=O)[C@H](CCC(=O)O)NC(=O)[C@H](Cc1ccccc1)NC(=O)[C@@H]1CCCN1C(=O)[C@H](CO)NC(=O)[C@H](CCC(=O)O)NC(=O)[C@@H](N)Cc1ccc(O)cc1)C(C)C)C(=O)N[C@H](C(=O)N[C@@H](CC(=O)O)C(=O)O)[C@@H](C)CC [RTN3245-253 WT (∆helix)] (H-YESPFEVIID-OH)
LC3A WT
  Kd: 21.7 ± 3.62 µM

## CC[C@H](C)[C@H](NC(=O)[C@@H](NC(=O)[C@H](CCC(=O)O)NC(=O)[C@H](Cc1ccccc1)NC(=O)[C@@H]1CCCN1C(=O)[C@H](CO)NC(=O)[C@@H](N)CCC(=O)O)C(C)C)C(=O)N[C@H](C(=O)N[C@@H](CC(=O)O)C(=O)N[C@@H](CCCCN)C(=O)N[C@@H](C)C(=O)N[C@@H](C)C(=O)N[C@@H](Cc1ccccc1)C(=O)N[C@@H](CC(=O)O)C(=O)N[C@@H](CCCCN)C(=O)N[C@@H](CCC(=O)O)C(=O)N[C@@H](Cc1ccccc1)C(=O)N[C@@H](CCCCN)C(=O)N[C@@H](CC(=O)O)C(=O)N[C@@H](CO)C(=O)N[C@@H](Cc1ccc(O)cc1)C(=O)O)[C@@H](C)CC [RTN3245-264 WT] (H-ESPFEVIIDKAAFDKEFKDSY-OH)
LC3C WT
  Kd: not detected

## CC[C@H](C)[C@H](NC(=O)[C@H](CCSC)NC(=O)[C@H](CCC(=O)O)NC(=O)[C@H](Cc1ccccc1)NC(=O)[C@H](CC(=O)O)NC(=O)[C@@H](N)CC(N)=O)C(=O)N[C@H](C(=O)N[C@@H](CCCCN)C(=O)N[C@@H](Cc1ccc(O)cc1)C(=O)O)[C@@H](C)O [SEC62^361-368 (Δhelix)] (H-NDFEMITKY-OH)
LC3C WT; read-out: Kd
  Kd: 31.9 ± 13.2 µM
